The subject of test [1] is Neutrophil. In words: Inhibition of superoxide production in human neutrophils. In kind it is functional, cell-based.
Test [2] in a line: Viability of human neutrophils by trypan blue assay at 500 uM. In kind it is functional, Neutrophil.
The next test relates to HL-60. In words: Antiproliferative activity against HL60 cells by MTT assay. The test is classed as functional, cell-based. Conditions: Homo sapiens. (In general: Formazan colour is commonly taken as a measure of viable cells.)
For test [3], the system named is Neutrophil. In words: Inhibition of PMA-induced adhesion of neutrophils. In kind it is functional, cell-based. Conditions: Homo sapiens.

Each structure is given as a SMILES string. The source made the active and inactive calls. No cut-off for these calls is given here.

1 compound from ChEMBL document CHEMBL1139211, “E/Z-rubrolide O, an anti-inflammatory halogenated furanone from the New Zealand ascidian Synoicum n. sp” (J Nat Prod, 2007) can be followed below.

As a reminder, the IC50 is the concentration that gives 50% inhibition.

Turning to `O=C1O/C(=C\c2ccc(O)c(Br)c2)C(c2cc(Br)c(O)c(Br)c2)=C1Cl` [RUBROLIDE O], the IC50 in the test with Neutrophil [1] was determined as 35 µM; in the test with HL-60 it was 33 µM. In addition, the Activity in test [2] is 87%. In the test with Neutrophil [3], the outcome was Active.
